Laboratory results: patent US9233978B2, “6-fused heteroaryldihydropyrimidines for the treatment and prophylaxis of hepatitis B virus infection” (Hoffmann-La Roche Inc., priority 2014, dated 2016)
pEC50: −log10 of the molar value.

Tests used:
[1] = Cytotoxicity in HepDE19 cells (CCK-8) and selectivity index; format: cell-based; settings: human, HepDE19 cells; CCK-8 cell viability; five days after treatment
Method in brief: (§1)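 HepDE19 cells (DMEM-F12, 10% FBS) were treated with compound for five days, then given CCK-8 for 2 h at 37 °C and read at OD450 and OD630. CC50 is the concentration killing 50% of host cells. Selectivity index is CC50/EC50.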

[2] = tested on: HepDE19 cells; assay: as above; format: cell-based; settings: CC50 (HepDE19) value / EC50 (HepG2.2.15) value
Method in brief: as §1

[3] = tested on: HBV; assay: Anti-HBV activity in vitro, HepG2.2.15 cells, extracellular HBV DNA by qPCR; format: cell-based; settings: Hepatitis B virus, HepG2.2.15, 120 h, HepG2.2.15 cells; HBV replication inhibited by 50%, extracellular HBV DNA by qPCR; five days after compound treatment; read-out: EC50
Method in brief: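 HBV-producing HepG2.2.15 cells were seeded and left overnight at 37 °C, then treated with half-log serial compound dilutions at a final 0.5% DMSO. After 5 days, viral DNA was extracted from the supernatant and extracellular HBV DNA was quantified by qPCR.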

[4] = Lysa solubility; format: physicochemical; settings: phosphate buffer, pH 6.5, aqueous buffer, thermodynamic from solid, 0.05 M phosphate buffer (pH 6.5)
Method in brief: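 Duplicate samples dried from 10 mM DMSO stocks, taken up in 0.05 M phosphate buffer pH 6.5, stirred 1 h, shaken 2 h and left overnight. Filtrate and 1/10 dilution quantified by direct UV or HPLC-UV, in μg/mL; above 80% of the calculated maximum, reported as greater than that value.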

[5] = Human microsomal metabolic stability; format: in vitro ADME; settings: human microsomes 0.5 mg/mL, 1 μM test compound, NADPH, 37° C., pH 7.4, 0-30 minutes
Method in brief: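 1 μM compound with 0.5 mg/mL human liver microsomal protein in 100 mM phosphate pH 7.4 at 37° C, started with 1 mM NADPH or a NADPH-regenerating system. Sampled at 0–30 min, quenched in cold methanol with tolbutamide internal standard; remaining parent quantified by LC-MS/MS.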

[6] = tested on: CYP3A4; assay: Cytochrome P450 induction screening assay, mRNA induction in human cryopreserved hepatocytes; format: in vitro ADME; settings: CYP3A4 mRNA relative induction, 24 hours, test compound up to 10 μM
Method: Human cryopreserved hepatocytes (Life Technologies, Carlsbad, USA) were thawed and cultured in collagen I coated 96-well plates with a density of 52,000 cells/well. After attachment, medium was changed and cells were pre-cultured overnight in hepatocyte maintenance medium (HMM; Lonza, Switzerland).
Test compounds were dosed to the cells next morning at an indicated concentration (up to 10 μM) in HMM culture media containing gentamycin and a constant 0.1% DMSO. Similarly, dilutions of the positive inducer compounds omeprazole (prototypical inducer of human CYP1A2; final concentrations: 1 and 10 μM), phenobarbital (prototypical inducer of human CYP2B6; final concentrations: 100 and 1000 μM) and rifampicin (prototypical inducer of human CYP3A4; final concentrations: 1 and 10 μM) were prepared from 1000 fold DMSO stock solutions in HMM containing gentamycin. Medium change was then performed and cells were exposed for 24 hours to test compounds, positive inducer compounds, or vehicle (0.1% DMSO), respectively.
At the end of the compound exposure period, medium was removed and cells lysed using 100 μL/well MagNA Pure LC RNA isolation tissue lysis buffer (Roche Diagnostics AG, Rotkreuz, Switzerland). Plates were then sealed and frozen at −80° C. until further workup.
mRNA isolation was performed using the MagNA Pure 96 system (Roche Diagnostics AG, Rotkreuz, Switzerland) and the respective cellular RNA large volume kit (Roche Diagnostics AG, Rotkreuz, Switzerland) from thawed samples diluted 1:1 with PBS. The volume of the cell lysis and an elution volume of 100 μL were used. 20 μl of the resulting mRNA suspension was then used for reverse transcription using 20 μl of the transcript or first stand cDNA synthesis kit (Roche prime Supply, Mannheim, Germany). The resulting cDNA was diluted with 40 μl of H2O before using for qRT-PCR. qRT-PCR was performed by using the forward and the reverse primer, the corresponding UPL (all from Microsynth, Balgach, Switzerland) and the Taqman Fast advanced master mix (Applied Biosystems), on an ABI 7900 machine (Applied Biosystems).
qRT-PCR Ct-values for the respective P450s were put into relation to the Ct-value of RN18S1 (microsynth, Balgach, Switzerland) of the same sample. Doing so, a respective Δct-value was calculated. Using the average of all Δct-values for the vehicle control samples, a ΔΔct-value was calculated for each sample (ΔΔct-value(sample)=Δct-value(sample)−average of Δct-value of all vehicle controls). The fold induction of the respective sample was calculated as 2^(−ΔΔct). The individual fold induction values were then averaged per treatment condition (usually n=3 biological replicates).
Relative induction values to the respective positive inducer compound condition (10 μM omeprazole for CYP1A2; 1000 μM Phenobarbital for CYP2B6; 10 μM rifampicin for CYP3A4) were then calculated from the fold induction values as follows: Relative induction (%)=100×(T−V)/(P−V)

[7] = tested on: HBV; settings: HBV infected transgenic mouse or humanized mouse models; cited from earlier work

Row | Structure (SMILES) | CC50 at 5 days [1] | Selectivity index (CC50/EC50) [2] | pEC50 [3] | solubility thermodynamic [4] | Human Microsomal Clearance [5] | % of Positive control (10 μM Rifampicin) [6] | in vivo efficacy (HBV DNA reduction) [7]
1 | CCOC(=O)C1=C(CN2CCN3C(=O)N(C4CCC(C(=O)O)C4)C[C@@H]3C2)NC(c2nccs2)=N[C@H]1c1cccc(F)c1Cl (mixture of isomers) [Example 62, (R)-6-[(S)-2-((1R,3S)-3-Carboxy-cyclopentyl)-3-oxo-hexahydro-imidazo[1,5-a]pyrazin-7-ylmethyl]-4-(2-chloro-3-fluoro-phenyl)-2-thiazol-2-yl-1,4-dihydro-pyrimidine-5-carboxylic acid ethyl ester and (R)-6-[(S)-2-((1S,3R)-3-Carboxy-cyclopentyl)-3-oxo-hexahydro-imidazo[1,5-a]pyrazin-7-ylmethyl]-4-(2-chloro-3-fluoro-phenyl)-2-thiazol-2-yl-1,4-dihydro-pyrimidine-5-carboxylic acid ethyl ester] | > 100000 nM | >16667 | 8.22 | 374 µg/mL | 1.7 mL/min/kg | 0% | –
2 | COC(=O)C1=C(CN2CCN3C(=O)N(C(C)(C)C)C[C@@H]3[C@H]2C(=O)O)NC(c2nccs2)=N[C@H]1c1ccc(F)cc1Cl (single isomer, unassigned) [Example 86B] | > 100000 nM | >25000 | 8.40 | > 740 µg/mL | 4.7 mL/min/kg | 11% | –
3 | COC(=O)C1=C(C)NC(c2ncc(F)cc2F)=N[C@H]1c1ccc(F)cc1Cl [Bay 41-4109] | – | – | – | – | – | – | demonstrated in vivo efficacy with HBV DNA reduction
4 | COC(=O)C1=C(CN2CCN3C(=O)N(C(C)(C)C)C[C@@H]3[C@H]2C(=O)O)NC(c2nccs2)=N[C@H]1c1ccc(F)c(F)c1C (single isomer, unassigned) [Example 88B] | > 100000 nM | >20000 | 8.30 | > 745 µg/mL | 4.5 mL/min/kg | 3.7% | –
5 | CCOC(=O)C1=C(CN2CCN3C(=O)N(C)C[C@H]3[C@@H]2C(=O)O)NC(c2nccs2)=N[C@H]1c1cccc(F)c1Cl (single isomer, unassigned) [Example 91B] | > 100000 nM | >50000 | 8.70 | > 705 µg/mL | 5.8 mL/min/kg | 1.7% | –
